The subject of assay [1] is SDMA in human colon cancer cell line HCT116. In words: Cell symmetric dimethylarginine (SDMA) test, In-cell Western, HCT116 (MTAP wild-type). In kind it is cell-based. As to conditions: Homo sapiens, HCT-116, 96 h. The text has this:
MAT2A catalyzes the reaction of L-methionine and ATP to generate SAM, inorganic phosphonic acid, and inorganic diphosphonic acid. SAM is an important methyl donor, and is a substrate of arginine methyltransferase 5 (PRMT5). PRMT5 catalyzes SDMA modification of multiple proteins within a cell. The intracellular SDMA modification level was detected by ICW (In-cell Western), and the inhibition of the test compound on the enzymatic activity of intracellular MAT2A was indirectly reflected.
In the present application, the human colon cancer cell line HCT116 and the corresponding HCT116-MTAP-knockout cell line were seeded into a 96-well cell culture plate at an appropriate cell density. After 24 h, the cells were treated using the test compounds diluted 1:4 fold at the highest concentration of 6 μM for 6 gradients, and a DMSO treatment group was set up separately. The cells were cultured in a 37° C./5% CO2 incubator for 4 days. To test the inhibitory activity of the test compounds against tumor cell SDMA, the medium was discarded, and the plate was washed 3 times with PBST. 4% paraformaldehyde was then used at room temperature for fixation for 20 min. The fixation solution was discarded, the plate was washed 3 times with PBST, and a special blocking solution was added to each well for blocking at room temperature for 2 h. The blocking solution was discarded. After the plate was washed 3 times with PBST, the plate was incubated with SDMA antibody at 4° C. overnight. The next day, the plate was washed 3 times with PBST. The secondary antibody and DRAQ5 were diluted to an appropriate concentration with the blocking solution, and incubated at room temperature for 2 h; the plate was washed 3 times with PBST, and the fluorescence signals at 700 nm and 800 nm were detected using a Li—COR Odyssey two-color near-infrared laser imager.
The data was then processed. After the corresponding background value was subtracted from each well, statistical analysis was performed on the 800 nm/700 nm ratio for each well, a sigmoidal dose-inhibition curve was plotted using a non-linear regression model, and IC50 values were fitted and calculated. Inhibition Rate (%)=(1−SDMA dose/SDMA DMSO control)*100. SDMA dose is the value of the drug treatment group, and SDMA DMSO control is the value of the DMSO control group.

Assay [2] deals with MAT2A recombinant protein (Homo sapiens, UniProt P31153). In words: MAT2A inhibitory activity (malachite green colorimetric enzyme assay). In kind it is biochemical. The source says: MAT2A catalyzes the reaction of L-methionine and ATP to generate S-adenosylmethionine (SAM), inorganic phosphonic acid, and inorganic diphosphonic acid. Malachite green reacts with inorganic phosphonic acid to generate a green product, and the enzyme activity of MAT2A can be indirectly reflected by detecting the content of the inorganic phosphonic acid in a sample.
The test compounds were formulated using DMSO and diluted 1:3 diluted through 10 concentration points to give a final starting concentration in the reaction system of 1000 nM. The test compounds at different concentrations described above were transferred to a 384-well plate. Experimental buffer (50 mM HEPES pH 7.5, 50 mM KCl, 10 mM MgCl2, 10 mM DTT) was prepared. 2×MAT2A recombinant protein was prepared using the buffer and added to a 384-well plate. A mixed solution of 2×L-methionine and ATP was prepared using the buffer, and added to a 384-well plate. The enzymatic reaction was started, and the reaction was carried out at room temperature for 60 min. 20 μL of a colorimetric detection reagent was added to the above system, and incubated at room temperature for 15 min. The absorbance at 630 nm was measured. The inhibition rate of the compound on the enzyme activity was calculated, and the inhibition rate value and the logarithm value of the compound concentration were fitted using non-linear regression (dose response-variable slope) to give the IC50 value of the test compound.

In assay [3] the test system is SDMA in HCT116-MTAP-knockout cell line. In words: Cell symmetric dimethylarginine (SDMA) test, In-cell Western, HCT116-MTAP-knockout. As to conditions: Homo sapiens, 96 h. It counts as cell-based.
[4] abbreviates: IC50 score class, read-out: Cell 96 h SDMA Inhibition (HCT116-MTAP+/+) (score).
Setting [5] is: read-out: Cell 96 h SDMA inhibition (HCT116-MTAP+/+).
Setting [6] is: IC50 score class, read-out: MAT2A Inhibition (score).
[7] abbreviates: IC50 score class, read-out: Cell 96 h SDMA Inhibition (HCT116-MTAP−/−) (score).
Setting [8] is: read-out: Cell 96 h SDMA Inhibition (HCT116-MTAP−/−).

Each structure is given as a SMILES string. pIC50: −log10 of the molar value. Like-named read-outs stand apart in the source and are kept apart here.

Sequence of MAT2A recombinant protein (P31153 whole entry): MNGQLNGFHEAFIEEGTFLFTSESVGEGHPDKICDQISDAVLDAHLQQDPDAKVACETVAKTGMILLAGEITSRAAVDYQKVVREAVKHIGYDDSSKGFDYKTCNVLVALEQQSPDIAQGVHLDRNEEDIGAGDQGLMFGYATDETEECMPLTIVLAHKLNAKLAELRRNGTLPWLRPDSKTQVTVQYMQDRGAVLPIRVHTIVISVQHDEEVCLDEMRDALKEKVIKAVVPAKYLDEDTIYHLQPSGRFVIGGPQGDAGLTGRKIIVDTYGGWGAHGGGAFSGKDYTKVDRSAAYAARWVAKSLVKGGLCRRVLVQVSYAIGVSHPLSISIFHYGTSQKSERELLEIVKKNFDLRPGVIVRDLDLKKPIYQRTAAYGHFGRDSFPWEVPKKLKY

With `O=c1c2nn(C(F)F)cc2c2cc(F)c(Cl)cc2n1-c1cccnc1C1CC1` (single isomer, unassigned) [Compound B399], the results for the pIC50 in assay [1] (setting [4]) and in assay [1] (setting [5]) were less than 5.52 and less than 5.00, respectively.
In the case of `CCn1cc2c(n1)c(=O)n(-c1ccncc1)c1cc(Cl)ccc21` [Compound B10], the pIC50 in assay [2] (setting [6]) and in assay [2] (read-out: MAT2A Inhibition) was less than 6.00 in each case.
On to `CCn1cc2c(n1)c(=O)n(-c1ccc(OC)cc1)c1cc(Cl)ccc21` [Compound B11], for which the pIC50 in assay [2] (setting [6]) and in assay [2] (read-out: MAT2A Inhibition) was less than 6.00 each time.
As for `CCn1cc2c(n1)c(=O)n(-c1cccc(C(F)(F)F)c1)c1cc(Cl)ccc21` [Compound B15], the pIC50 in assay [2] (setting [6]) and in assay [2] (read-out: MAT2A Inhibition) was less than 6.00 in each case.
Turning to `CCn1cc2c(n1)c(=O)n(-c1cccnc1)c1cc(OC(F)(F)F)ccc21` [Compound B19], the results for the pIC50 in assay [2] (setting [6]) and in assay [2] (read-out: MAT2A Inhibition) were 6.00 to 7.00 and 6.90, respectively.
Taken in the same sequence, the figures for `Cc1nnc2c(=O)n(-c3cccnc3)c3cc(Cl)ccc3n12` [Compound B23] were 6.00 to 7.00 and 6.04.
Taken in the same sequence, the figures for `CCn1nc2c(=O)n(-c3cccnc3)c3cc(Cl)ccc3c2c1C(F)(F)F` [Compound B24] were 6.00 to 7.00 and 6.94.
For `CCn1nc2c(=O)n(-c3cccnc3)c3cc(Cl)ccc3c2c1C(F)F` [Compound B25] the same measures were more than 7.00 and 7.03.
In the case of `Cn1nc2c(=O)n(-c3cccnc3)c3cc(Cl)ccc3c2c1C(F)(F)F` [Compound B26], the pIC50 in assay [2] (setting [6]) was 6.00 to 7.00; in assay [2] (read-out: MAT2A Inhibition), 6.46.
For `O=c1c2nccnc2c2ccc(Cl)cc2n1-c1cccnc1` [Compound B50] the same measures were 6.00 to 7.00 and 6.31.
Take `Cc1ncccc1-n1c(=O)c2nn(C)cc2c2ccc(C3CC3)nc21` [Compound B75]: the pIC50 was more than 7.00 in assay [2] (setting [6]); 7.36 in assay [2] (read-out: MAT2A Inhibition); 6.00 to 6.70 in assay [1] (setting [4]); 6.53 in assay [1] (setting [5]); more than 6.70 in assay [3] (setting [7]); 7.84 in assay [3] (setting [8]).
As to `Cn1cc2c(n1)c(=O)n(-c1cccnc1)c1cc(OC(F)(F)F)ccc21` [Compound B78], the pIC50 is 5.52 to 6.00 in assay [1] (setting [4]), 5.69 in assay [1] (setting [5]), 6.00 to 6.70 in assay [3] (setting [7]) and 6.09 in assay [3] (setting [8]).
On to `Cn1cc2c(n1)c(=O)n([C@H]1CC[C@H](O)CC1)c1cc(Cl)ccc21` [Compound B109], for which the pIC50 in assay [2] (setting [6]) was 6.00 to 7.00; in assay [2] (read-out: MAT2A Inhibition), 6.32.
For `Cn1cc2c(n1)c(=O)n(Cc1ccn[nH]1)c1cc(Cl)ccc21` [Compound B117] the same measures were more than 7.00 and 7.38.
As to `Cn1cc2c(n1)c(=O)n(-c1cccnc1)c1cc(Cl)c(F)cc21` [Compound B139], the pIC50 in assay [2] (setting [6]) is more than 7.00; in assay [2] (read-out: MAT2A Inhibition), 7.43; in assay [1] (setting [4]), less than 5.52; in assay [1] (setting [5]), 5.17; in assay [3] (setting [7]), 6.00 to 6.70; in assay [3] (setting [8]) it was 6.11.
For the compound `Cn1ccc(Cn2ncc3c4ccc(Cl)cc4n(-c4cccnc4)c(=O)c32)n1` [Compound B168], the pIC50 in assay [2] (setting [6]) is more than 7.00; in assay [2] (read-out: MAT2A Inhibition), 7.00.
Taken in the same sequence, the figures for `Cn1cc2c(n1)c(=O)n(-c1cccc(O)c1)c1cc(OC(F)(F)F)ccc21` [Compound B169] were more than 7.00 and 7.01.
For `O=c1c2c(cnn2CC(F)F)c2ccc(Cl)cc2n1-c1cccnc1` [Compound B170] the same measures were 6.00 to 7.00 and 6.66.
Taken in the same sequence, the figures for `COc1cccc(-n2c(=O)c3nn(C)cc3c3ccc(C(F)(F)F)nc32)c1` [Compound B184] were 6.00 to 7.00 and 6.76.
`COc1ccc(-n2c(=O)c3nn(C)cc3c3ccc(Cl)cc32)cc1` [Compound B185]: the pIC50 was 6.00 to 7.00 in assay [2] (setting [6]) and 6.42 in assay [2] (read-out: MAT2A Inhibition).
For `Cn1cc2c(n1)c(=O)n(-c1ccc(OC(F)F)cc1)c1cc(Cl)ccc21` [Compound B186] the same measures were 6.00 to 7.00 and 6.72.
For the compound `COc1ccc(-n2c(=O)c3nn(C)cc3c3ccc(C(F)(F)F)nc32)cc1` [Compound B187], the results for the pIC50 in assay [2] (setting [6]) and in assay [2] (read-out: MAT2A Inhibition) were 6.00 to 7.00 and 6.55, respectively.
Taken in the same sequence, the figures for `Cn1cc2c(n1)c(=O)n(-c1cccc(OC(F)F)c1)c1nc(C(F)(F)F)ccc21` [Compound B190] were 6.00 to 7.00 and 6.87.
For `Cn1cc2c(n1)c(=O)n(-c1cccc(C(F)F)c1)c1nc(C(F)(F)F)ccc21` [Compound B194] the same measures were more than 7.00 and 7.36.
Taken in the same sequence, the figures for `Cn1cc2c(n1)c(=O)n(-c1c(F)cccc1F)c1nc(C(F)(F)F)ccc21` [Compound B195] were more than 7.00 and 7.70.
In the case of `Cn1cc2c(n1)c(=O)n(Cc1cn[nH]c1)c1nc(C(F)(F)F)ccc21` [Compound B197], the figures for the pIC50 in assay [2] (setting [6]) and in assay [2] (read-out: MAT2A Inhibition) were more than 7.00 and 7.04, respectively.
Taken in the same sequence, the figures for `Cn1cc2c(n1)c(=O)n(-c1ccn3ccnc3c1)c1cc(Cl)ccc21` [Compound B205] were more than 7.00 and 7.15.
For `Cn1cc2c(n1)c(=O)n(-c1ccc3ncoc3c1)c1cc(Cl)ccc21` [Compound B208] the same measures were 6.00 to 7.00 and 6.75.
For `Cn1cc2c(n1)c(=O)n(-c1ccc3ncoc3c1)c1nc(C(F)(F)F)ccc21` [Compound B209] the same measures were 6.00 to 7.00 and 6.91.
In the case of `O=c1c2nn(C3CCOCC3)cc2c2ccc(C(F)(F)F)nc2n1-c1cccnc1` [Compound B210], the pIC50 was 6.00 to 7.00 in assay [2] (setting [6]) and 6.22 in assay [2] (read-out: MAT2A Inhibition).
In the case of `Cn1cc2c(n1)c(=O)n(-c1cccc(NS(C)(=O)=O)c1)c1nc(C(F)(F)F)ccc21` [Compound B214], the pIC50 in assay [2] (setting [6]) is more than 7.00; in assay [2] (read-out: MAT2A Inhibition), 7.83.
For `Cn1cc2c(n1)c(=O)n([C@@H]1CCCOC1)c1cc(Cl)ccc21` [Compound B230] the same measures were 6.00 to 7.00 and 6.63.
Taken in the same sequence, the figures for `COc1ccc(-n2cc3c(n2)c(=O)n(-c2ccccc2)c2nc(C(F)(F)F)ccc32)cn1` [Compound B231] were more than 7.00 and 7.40.
For `Cn1cc2c(n1)c(=O)n(-c1cccnc1)c1nc(Cl)ccc21` [Compound B244] the same measures were more than 7.00 and 6.99.
Consider `N#Cc1cc2c3cn(C(F)F)nc3c(=O)n(-c3cccc4[nH]ncc34)c2cc1Cl` [Compound B283], for which the pIC50 in assay [2] (setting [6]) was more than 7.00; in assay [2] (read-out: MAT2A Inhibition), 7.06.
`COc1ccc(Cn2cc3c(n2)c(=O)n(-c2cccc4[nH]ncc24)c2cc(Cl)c(C#N)cc32)cc1` [Compound B286]: the figures for the pIC50 in assay [2] (setting [6]) and in assay [2] (read-out: MAT2A Inhibition) were 6.00 to 7.00 and 6.73, respectively.
For `O=c1c2nn(C(F)F)cc2c2cc(F)c(Cl)cc2n1-c1cccnc1C(F)(F)F` [Compound B339], the pIC50 in assay [1] (setting [4]) is less than 5.52; in assay [1] (setting [5]), less than 5.00; in assay [3] (setting [7]), 6.00 to 6.70; in assay [3] (setting [8]), 6.69.
With `Cn1cnc2c(=O)n(-c3cccc4ccccc34)c3cc(Cl)c(C#N)cc3c21` [Compound B378], the pIC50 in assay [2] (setting [6]) and in assay [2] (read-out: MAT2A Inhibition) was less than 6.00 throughout.
Consider `Cn1cnc2c(=O)n(-c3cccc4cccnc34)c3cc(Cl)c(C#N)cc3c21` [Compound B379], for which the pIC50 in assay [2] (setting [6]) and in assay [2] (read-out: MAT2A Inhibition) was less than 6.00 throughout.

The values above are taken from patent US20240391923A1, “METHIONINE ADENOSYLTRANSFERASE 2A INHIBITOR FOR TREATING MTAP DELETION-TYPE CANCER” (SUZHOU GENHOUSE BIO CO., LTD., priority 2022, published 2024).
